According to patent US11040053B2, “Compositions and methods for activating “stimulator of interferon gene”13 dependent signalling” (CHINOOK THERAPEUTICS, INC., priority 2015, dated 2021):
Entries after “also recorded” stand apart in the source; their conditions may differ.

Key:
[1] = molecular target: T1, HAQ allele hSTING (Homo sapiens, UniProt Q86WV6, G230A/H232R/R293Q); test: Differential scanning fluorometry (DSF) binding to purified hSTING HAQ allele; conditions: for hSTING Tm Shift HAQ: DSF, 1 mg/ml STING AA140-379, ligand 1 mM; for binding relative to OH reference compound, in words: Table 4 comment, HAQ allele hSTING
T1 construct: DNA encoding amino acids 140-379 (amino acid numbering corresponding to Swiss Prot Q86WV6); 6xHIS (N, cleaved yes); SUMO (N, cleaved yes); made in house; host or cells: Rosetta2 (DE3) E. coli
Description: (§1) Cells were grown in lysogeny broth at 37° C. until a […] absorbance of 0.6 was reached. […] Cell pellets were re-suspended on ice in a buffer containing 50 mM Tris hydrochloride (Tris-HCl) pH 7.5, 500 mM sodium chloride (NaCl), 20 mM imidazole, 10% glycerol, 1 mM tris(2-carboxyethyl)phosphine hydrochloride (TCEP) and protease inhibitor tablet (Pierce) (Buffer A). Cells were lysed using an S-450D sonifier (Emmerson industrial) on ice. […] Protein was aliquoted, flash frozen in liquid nitrogen and stored at −80° C. until use.
(§2) The protein is heated in the presence of a dye that binds to and fluoresces in hydrophobic environments. The protein is thermally denatured by heating resulting in increased dye binding to the unfolded protein and fluorescence. The temperature midpoint (Tm) of a proteins denaturation is established by calculating the half maximal value of the denaturation curve. The temperature midpoint of the protein in the presence of a ligand is directly related to the affinity of the ligand for the protein and therefore its ability to stabilize the protein at higher temperatures.
(§3) Samples were placed in hard shell PCR plate (Bio-Rad). The fluorescence as a function of temperature was recorded in a CFX 96 real time PCR machine (Bio-Rad) reading on the HEX channel, excitation 450-490, emission 560-580 nm. The temperature gradient was from 15-80° C. ramping 0.5° C. per 15 seconds and recording every 0.5° C. After subtraction of the background signal from a sample lacking protein and ligand. The midpoint temperature (Tm) was calculated by fitting the curves of the fluorescence as a function of temperature to a Boltzmann sigmoidal function (Graph Pad Prism).

[2] = molecular target: T2, human-STING(E149-S379)H232R protein (Homo sapiens, UniProt Q86WV6, H232R); test: Surface Plasmon Resonance binding to hSTING WT; conditions: Biacore T200, 15° C., steady-state analysis
T2 construct: His6 (C); made in house; host or cells: E. coli
Description: Binding of the mono- and di-F CDN compounds was assessed using Surface Plasmon Resononce to determine a binding constant. An E. coli expression construct (human-STING[E149-S379]H232R) was prepared harboring the protein sequence:
Aliquots were prepared and stored at −80° C. in 30 mM Tris pH 7.5/100 mM NaCl/10% glycerol.
N-terminal avi-tagged human-STING(E149-S379)H232R protein was immobilized (2500 RUs) on a streptavidin chip at 15° C. in a Biacore T200 (GE Healthcare). Titrations of cyclic dinucleotides (CDNs as indicated in Table 6) in 30 mM Tris pH 7.5/50 mM NaCL/0.005% Tween 20/1 mM DTT/2% DMSO, were profiled (30 μLs/min, 180 seconds for sample contact/120 seconds for dissociation) against hSTING at 15° C. Kinetic analysis of the data was performed using Biacore T200 Evaluation software. Steady-state analysis of the data was performed using Graphpad Prism 6.0 software, using one site-specific binding algorithm (Equation is Y=Bmax*X/(Kd+X)).

[3] = molecular target: hSTING(WT) (Homo sapiens, UniProt Q86WV6, H232R); test: Differential scanning fluorometry (DSF) binding to purified hSTING WT; set-up: DNA encoding amino acids 140-379 (amino acid numbering corresponding to Swiss Prot Q86WV6); 6xHIS (N, cleaved yes); SUMO (N, cleaved yes); made in house; host or cells: Rosetta2 (DE3) E. coli; conditions: for hSTING Tm Shift WT: DSF, 1 mg/ml STING AA140-379, ligand 1 mM; for binding relative to OH reference compound, in words: Table 4 comment, wild type hSTING
Description: as §1, §2, §3

[4] = molecular target: T3, reference (REF) STING allele (Homo sapiens, UniProt Q86WV6); test: Cytokine transcript induction (qRT-PCR) in STING^REF/REF hPBMCs; format: cell-based; conditions: for cytokine responses (IFNβ, TNFα, IL-6, IFNγ, IL-12p40 expression), in words: FIGS. 9B-13B, 2 hours and 6 hours stimulation
T3 construct: endogenous in cells
Description: (§4) The induction of type I interferon was measured in human primary blood mononuclear cells (hPBMCs) to evaluate the potency of mono- or di-F-CDN compounds as described herein. hPBMCs from two unique donors were used: one donor was homozygous for the wild type (WT) STING allele (STING^WT/WT) and the other donor was homozygous for the so-called reference (REF) STING allele (STING^REF/REF). The STING genotype of these donors was determined by PCR amplification and sequencing: genomic DNA was isolated from 10^4 hPBMCs using Quick Extract DNA Extraction Solution (Epicentre) and was used to amplify regions of exon 3, 6, and 7 of the human STING gene.
(§5) Cells were incubated at 37° C., 5% CO2 with concentrations ranging from 100 μM to 0.1 μM of each CDN. After 2 hours (FIGS. 7 and 8) or 2 hours and 6 hours (FIGS. 9-13) stimulation, cells were harvested by centrifugation and washed once with phosphate-buffered saline. Cellular RNA was isolated using the Aurum Total RNA 96 Kit and cDNA was synthesized using the iScript cDNA Synthesis Kit. Target and reference gene expression was assessed by real-time qRT-PCR using PrimePCR probe assays and the CFX96 gene cycler (all reagents and equipment from BioRad). Normalized IFNβ expression was expressed relative to untreated cells. Target genes included type I interferon (IFNβ), Th1-associated cytokines (IFNγ, IL-12p40) and NF-kB dependent inflammatory cytokines (TNFα, IL-6). Reference genes included GUSB alone (FIGS. 7 and 8) or GUSB and HSP90AB1 (FIGS. 9-13).

[5] = molecular target: T4, hSTING(REF) (Homo sapiens, UniProt Q86WV6); test: Differential scanning fluorometry (DSF) binding to purified hSTING REF allele; set-up: DNA encoding amino acids 140-379 (amino acid numbering corresponding to Swiss Prot Q86WV6); 6xHIS (N, cleaved yes); SUMO (N, cleaved yes); made in house; host or cells: Rosetta2 (DE3) E. coli; conditions: for hSTING Tm Shift REF: DSF, 1 mg/ml STING AA140-379, ligand 1 mM; for binding relative to OH reference compound, in words: Table 4 comment, REF allele hSTING
Description: as §1, §2, §3
Target sequence in this assay (Q86WV6 140-379): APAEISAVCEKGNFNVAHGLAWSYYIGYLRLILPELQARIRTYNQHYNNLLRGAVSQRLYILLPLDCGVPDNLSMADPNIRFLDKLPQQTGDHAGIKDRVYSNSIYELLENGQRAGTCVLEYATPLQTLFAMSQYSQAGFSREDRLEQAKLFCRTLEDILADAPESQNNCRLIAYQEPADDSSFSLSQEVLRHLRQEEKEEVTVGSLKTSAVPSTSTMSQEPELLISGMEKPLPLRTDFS

[6] = molecular target: T5, hSTING HAQ allele (Homo sapiens, UniProt Q86WV6, G230A/H232R/R293Q/R71H); test: IRF-3 inducible secreted luciferase reporter in THP1-Dual cells without digitonin; format: cell-based; conditions: for activity relative to OH reference compound, in words: Table 5 comment, THP1 cells without digitonin; for EC50: without digitonin in THP1 cells (HAQ allele)
T5 construct: a human monocyte cell line containing the hSTING HAQ allele; host or cells: THP1-Dual cells
Description: After 30 minutes, cells were washed and fresh RPMI media containing 10% FBS was added, and cells were incubated at 37° C. with 5% CO2 Cell culture supernatants from each sample were collected after overnight incubation, and 10 μL of the cell culture supernatants was added to 50 μL QUANTI-Luc reagent (Invivogen). Type I interferon activation was determined by measuring secreted luciferase levels on a SpectraMax M3 spectrophotometer (Molecular Devices). The EC50 value was determined from the dose-response curve for the 10 concentrations from the serial dilution of the reference compounds and compounds of the invention tested in this assay as listed in Table 5.

[7] = molecular target: T4, hSTING(REF); test: IFN-β luciferase reporter in HEK293T cells stably expressing hSTING(REF), digitonin permeabilization; conditions: FIGS. 6A-B, 0.1 μM to 100 μM and 6.25 μM CDN
Target sequence in this assay (Q86WV6 whole entry, the tested form may be a part): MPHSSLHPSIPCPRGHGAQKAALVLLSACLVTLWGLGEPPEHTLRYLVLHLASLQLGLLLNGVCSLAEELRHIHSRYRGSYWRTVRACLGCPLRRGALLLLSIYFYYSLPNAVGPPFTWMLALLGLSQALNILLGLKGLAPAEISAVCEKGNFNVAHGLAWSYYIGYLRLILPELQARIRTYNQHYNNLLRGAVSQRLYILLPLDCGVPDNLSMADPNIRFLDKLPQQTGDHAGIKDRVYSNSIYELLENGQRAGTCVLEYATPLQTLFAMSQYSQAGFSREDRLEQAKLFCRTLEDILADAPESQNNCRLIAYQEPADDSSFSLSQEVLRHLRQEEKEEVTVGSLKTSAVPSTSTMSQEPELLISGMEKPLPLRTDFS
Description: 24 hours later, cells were stimulated with native and synthetic CDN derivative molecules using digitonin permeabilization to ensure uniform uptake.
After 20 min, the stimulation mixtures were removed and 200 ul of DMEM media supplemented with 10% (vol/vol) fetal bovine serum, 1% L-Glutamine, and 1% Penicillin/Streptomycin was added. Cells were incubated an additional 6 hours (37° C., 5% CO2) and then cell lysates were prepared and reporter gene activity measured on a Spectramax M3 luminometer using the Dual-Glo Luciferase Assay System (Promega, catalog #E2920) as described by the manufacturer. IFNβ firefly luciferase reporter gene activity was normalized to TK renilla luciferase gene activity and plotted as fold induction over activity in unstimulated cells (mean+/−s.e.m.).

[8] = tested on: B16.SIY cells; test: B16.SIY melanoma mouse model, intra-tumoral injection; format: in vivo, C57BL/6 mice; conditions: FIG. 14B, 5 μg IT, day 7 post-IT injection, vs HBSS control
Description: To determine whether the derivative molecules elicit anti-tumor immunity, 6-8 week old female C57BL/6 mice (8 mice per group) were implanted with B16.SIY cells (5×10^5 cells in 100 μL PBS). Mice were treated with reference compound 3′3′-RR-(A)(A) and di-F compound 3′3′-RR-(2′F-A)(2′F-A) (5, 50, 100 μg in a total volume of 40 μL HBSS), or HBSS vehicle control. Treatments began when tumors reached a volume of approximately 100 mm^3, on day 9 post tumor implantation. The CDN compounds were administered by […] injection into the center of the tumor (IT) using a 27 gauge needle. Mice were bled on day 16 post tumor implantation and PBMCs were isolated by Ficoll gradient (Miltenyi Biotech). 1×10^5 PBMCs were pre-incubated with anti-CD16/32 monoclonal antibody to block potential nonspecific binding, and labeled with PE-MHC class I pentamer (Proimmune) consisting of murine H-2Kb complexed to […] (SIY, SEQ ID NO: 16) peptide, anti-TCRβ-AF700 (H57-597), anti-CD8-Pacific Blue (53-6.7), anti-CD4-Pacific Orange (RM4-5) (all antibodies from BioLegend) and the Fixable Viability Dye eFluor 450 (eBioscience). Stained cells were analyzed using FACS Versa cytometer with FACSDiva software (BD). Data analysis was conducted with FlowJo software (Tree Star).

[9] = molecular target: T6, wild type (WT) STING allele (Homo sapiens, UniProt Q86WV6, H232R); test: Cytokine transcript induction (qRT-PCR) in STING^WT/WT hPBMCs; format: cell-based; conditions: FIGS. 7A-B, 2 hours stimulation, 100 μM to 0.1 μM
T6 construct: one donor was homozygous for the wild type (WT) STING allele; endogenous in cells; host or cells: human PBMCs, donor STING WT/WT
Description: as §4, §5

T2 sequence (Q86WV6 with tags, fused parts or gaps H232R): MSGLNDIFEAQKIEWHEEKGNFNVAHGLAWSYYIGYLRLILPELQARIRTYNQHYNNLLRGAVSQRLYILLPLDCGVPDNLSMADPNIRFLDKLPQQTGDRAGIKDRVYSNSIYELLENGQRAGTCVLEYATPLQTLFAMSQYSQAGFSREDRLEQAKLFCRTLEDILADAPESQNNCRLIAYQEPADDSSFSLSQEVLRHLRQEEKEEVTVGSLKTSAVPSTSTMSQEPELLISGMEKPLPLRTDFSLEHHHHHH
hSTING(WT), sequence (Q86WV6 140-379 H232R): as the sequence (Q86WV6 140-379) above, with H93R counted along it
T1 sequence (Q86WV6 140-379 G230A/H232R/R293Q limits assumed): as the sequence (Q86WV6 140-379) above, with G91A, H93R, R154Q counted along it
T3 sequence (Q86WV6 whole entry): as the sequence (Q86WV6 whole entry, the tested form may be a part) above
T5 sequence (Q86WV6 whole entry R71H/G230A/H232R/R293Q): as the sequence (Q86WV6 whole entry, the tested form may be a part) above, with R71H, G230A, H232R, R293Q counted along it
T6 sequence (Q86WV6 whole entry H232R): as the sequence (Q86WV6 whole entry, the tested form may be a part) above, with H232R counted along it

## Nc1nc2c(ncn2[C@@H]2O[C@@H]3CO[P@@](=O)(S)O[C@H]4[C@@H](F)[C@H](n5cnc6c(N)ncnc65)O[C@@H]4CO[P@@](=O)(S)O[C@H]3[C@H]2O)c(=O)[nH]1 [Compound 24, 2-amino-9-((2R,3R,3aS,5R,7aR,9R,10R,10aR,12R,14aR)-9-(6-amino-9H-purin-9-yl)-10-fluoro-3-hydroxy-5,12-dimercapto-5,12-dioxidooctahydro-2H,7H-difuro[3,2-d:3′,2′-j][1,3,7,9]tetraoxa[2,8]diphosphacyclododecin-2-yl)-1,9-dihydro-6H-purin-6-one]
[1]
  hSTING Tm Shift HAQ: 28.8 °C
  binding relative to OH reference compound, in words: improved binding
[2]
  Kd: 0.037 µM
[3]
  hSTING Tm Shift WT: 15.9 °C
  binding relative to OH reference compound, in words: improved binding
[4]
  cytokine responses (IFNβ, TNFα, IL-6, IFNγ, IL-12p40 expression), in words: induced more robust dose-dependent responses of each of the cytokines tested
[5]
  hSTING Tm Shift REF: 9.7 °C
  binding relative to OH reference compound, in words: improved binding
[6]
  activity relative to OH reference compound, in words: improved activity
  EC50: 13 µM

## Nc1ncnc2c1ncn2[C@@H]1O[C@@H]2CO[P@@](=O)(S)O[C@H]3[C@@H](F)[C@H](n4cnc5c(N)ncnc54)O[C@@H]3CO[P@@](=O)(S)O[C@H]2[C@H]1O [Compound 22, (2R,3R,3aR,5R,7aR,9R,10R,10aS,12R,14aR)-2,9-bis(6-amino-9H-purin-9-yl)-3-fluoro-10-hydroxy-5,12-dimercaptooctahydro-2H,7H-difuro[3,2-d:3′,2′-j][1,3,7,9]tetraoxa[2,8]diphosphacyclododecine 5,12-dioxide]
[1]
  hSTING Tm Shift HAQ: 16.0 °C
[2]
  Kd: 1.28 µM
[3]
  hSTING Tm Shift WT: 9.4 °C
[4]
  cytokine responses (IFNβ, TNFα, IL-6, IFNγ, IL-12p40 expression), in words: able to elicit cytokine responses at 6 hours stimulation with 100 μM of compound
[5]
  hSTING Tm Shift REF: 5.4 °C
[6]
  EC50: 59 µM

## Nc1ncnc2c1ncn2[C@@H]1O[C@@H]2CO[P@@](=O)(S)O[C@H]3[C@@H](O)[C@H](n4cnc5c(N)ncnc54)O[C@@H]3CO[P@@](=O)(S)O[C@H]2[C@H]1O [3'3'-RR-(A)(A), reference compound]
[7]
  IFNβ luciferase reporter induction by hSTING(REF), in words: responded poorly
[1]
  hSTING Tm Shift HAQ: 15.5 °C
[8]
  percent of SIY-specific CD8+ T cells in PBMCs, in words: elicited significantly SIY-specific CD8^+ T cells
[3]
  hSTING Tm Shift WT: 9.6 °C
[9]
  relative normalized IFNβ expression, in words: induced similar levels of IFNβ; also recorded: induced higher levels of IFNβ transcript when compared to the 3′3′-(A)(A) compound
[4]; FIGS. 8A-B, 2 hours stimulation, 100 μM to 0.1 μM
  relative normalized IFNβ expression, in words: did not stimulate production of appreciable IFNβ transcript levels
[5]
  hSTING Tm Shift REF: 5.7 °C
[6]
  EC50: 25 µM

## Nc1nc2c(ncn2[C@@H]2O[C@@H]3CO[P@@](=O)(S)O[C@H]4[C@@H](O)[C@H](n5cnc6c(N)ncnc65)O[C@@H]4CO[P@@](=O)(S)O[C@H]3[C@H]2F)c(=O)[nH]1 [Compound 23, 2-amino-9-((2R,3R,3aR,5R,7aR,9R,10R,10aS,12R,14aR)-9-(6-amino-9H-purin-9-yl)-3-fluoro-10-hydroxy-5,12-dimercapto-5,12-dioxidooctahydro-2H,7H-difuro[3,2-d:3′,2′-j][1,3,7,9]tetraoxa[2,8]diphosphacyclododecin-2-yl)-1,9-dihydro-6H-purin-6-one]
[1]
  hSTING Tm Shift HAQ: 25.9 °C
  binding relative to OH reference compound, in words: improved binding
[2]
  Kd: 0.311 µM
[3]
  hSTING Tm Shift WT: 14.7 °C
  binding relative to OH reference compound, in words: improved binding
[4]
  cytokine responses (IFNβ, TNFα, IL-6, IFNγ, IL-12p40 expression), in words: induced more robust dose-dependent responses of each of the cytokines tested
[5]
  hSTING Tm Shift REF: 9.5 °C
  binding relative to OH reference compound, in words: improved binding
[6]
  activity relative to OH reference compound, in words: improved activity
  EC50: 15 µM
